Experimental data taken from patent publication US20240116985A1, “STAPLED PEPTIDES AND METHODS THEREOF” (priority 2020, published 2024).
Converted amounts (≈) assume the structure as drawn. Like-named read-outs stand apart in the source and are kept apart here.

Tests used:
Solubility in PBS = type: physicochemical
Outline: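 The PBS solution was ultracentrifuged and the supernatant analyzed by HPLC. Its peak area was divided by that of a 50 μM peptide DMSO reference injection and multiplied by 50 uM to give solubility.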

[1] = biological target: T1, full-length beta-Catenin (Uniprot ID P35222) (Homo sapiens, UniProt P35222); assay: Fluorescence polarization IC50 (beta-catenin / 5FAM-TCF4 10-53 competition); type: binding
T1 construct: 10 nM full-length beta-Catenin (Uniprot ID P35222)
T1 sequence (P35222 1-781): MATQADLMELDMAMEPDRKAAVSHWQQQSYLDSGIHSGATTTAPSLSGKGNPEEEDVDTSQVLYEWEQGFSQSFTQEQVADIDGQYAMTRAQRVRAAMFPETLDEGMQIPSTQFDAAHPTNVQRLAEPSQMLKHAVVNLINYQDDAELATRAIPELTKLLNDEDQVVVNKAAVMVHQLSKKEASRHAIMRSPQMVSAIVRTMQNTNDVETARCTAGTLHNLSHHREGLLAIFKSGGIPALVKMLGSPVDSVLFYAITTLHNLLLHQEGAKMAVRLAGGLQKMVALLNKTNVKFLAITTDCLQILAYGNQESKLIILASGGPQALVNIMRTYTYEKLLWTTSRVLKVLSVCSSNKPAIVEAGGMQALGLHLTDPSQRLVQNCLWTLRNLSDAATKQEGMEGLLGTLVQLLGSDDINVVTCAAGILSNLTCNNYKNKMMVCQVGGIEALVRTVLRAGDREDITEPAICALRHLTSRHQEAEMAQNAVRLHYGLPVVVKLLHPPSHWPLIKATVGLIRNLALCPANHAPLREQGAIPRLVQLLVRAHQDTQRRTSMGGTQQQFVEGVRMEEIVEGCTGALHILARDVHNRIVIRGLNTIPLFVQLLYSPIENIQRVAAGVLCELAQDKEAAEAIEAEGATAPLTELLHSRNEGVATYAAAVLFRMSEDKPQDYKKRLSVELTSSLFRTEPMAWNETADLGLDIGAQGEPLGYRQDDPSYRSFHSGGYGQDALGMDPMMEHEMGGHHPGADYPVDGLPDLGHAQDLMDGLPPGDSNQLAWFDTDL

CHI Log D procedure = type: physicochemical
[2] = fluorescence polarization, read-out: beta-Catenin FP IC50

| Solubility (Solubility in PBS) | IC50 [1, 2] | IC50 ([1]; read-out: FP EC50) | CHI Log D (CHI Log D procedure; pH 7.4) | chromatographic logD (CHI Log D procedure; pH 7.4, CHI Log D) | Structure (SMILES) | IC50 ([1]; beta-Catenin FP IC50 (nM), Table E2-1) | chromatographic logD (CHI Log D procedure; pH 7.4) |
| --- | --- | --- | --- | --- | --- | --- | --- |
| 47 µM (≈ 89.7 µg/mL) | 44 nM | 44 nM | 2.677 |  | CC(=O)N1CCC[C@]12CC=CCCCC1(CCCC=CCCCCCC[C@@](C)(C(=O)N[C@@H](Cc3ccccc3)C(=O)N[C@@H](Cc3csc4ccccc34)C(=O)N[C@@H](CCC(N)=O)C(N)=O)NC(=O)[C@H](CC(N)=O)NC(=O)[C@H](Cc3ccccc3)NC(=O)[C@H](C)NC(=O)[C@H](C)NC(=O)[C@H](CCC(=O)O)NC(=O)[C@H](CC(=O)O)NC1=O)NC(=O)[C@H](CC1CCCCC1)NC(=O)[C@H](CC(=O)O)NC2=O (stereo partly drawn) [I-619, Ac-PL3-Asp-Cha-B5-Asp-Glu-Ala-Ala-Phe-Asn-S8-Phe-BztA-Gln-NH2] |  |  |
| 50 µM (≈ 95.9 µg/mL) | 198 nM |  |  | 2.57 | CC[C@H](C)[C@@H]1NC(=O)[C@H](CC(=O)O)NC(=O)[C@]2(CC=CCCCC3(CCCC=CCCCCCC[C@@](C)(C(=O)N[C@@H](Cc4ccccc4)C(=O)N[C@@H](Cc4csc5ccccc45)C(=O)N[C@@H](Cc4ccc(O)cc4)C(N)=O)NC(=O)[C@H](CCC(N)=O)NC(=O)[C@H](Cc4ccccc4)NC(=O)[C@H](C)NC(=O)[C@H](C)NC(=O)[C@H](CCC(=O)O)NC(=O)[C@H](CC(=O)O)NC3=O)NC1=O)CCCN2C(C)=O (stereo partly drawn) [I-636, Ac-PL3-Asp-Ile-B5-Asp-Glu-Ala-Ala-Phe-Gln-S8-Phe-BztA-Tyr-NH2] |  |  |
| 50 µM (≈ 90 µg/mL) | 88 nM |  |  | 2.2 | CC(=O)N1CCC[C@]12CC=CCCCC1(CCCC=CCCCCCC[C@@](C)(C(=O)N[C@@H](Cc3ccccc3)C(=O)N[C@@H](Cc3csc4ccccc34)C(=O)N[C@H](CO)C(N)=O)NC(=O)[C@H](CCC(N)=O)NC(=O)[C@H](Cc3ccccc3)NC(=O)[C@H](C)NC(=O)[C@H](C)NC(=O)[C@H](CCC(=O)O)NC(=O)[C@H](CC(=O)O)NC1=O)NC(=O)[C@H](C)NC(=O)[C@H](CC(=O)O)NC2=O (stereo partly drawn) [I-493, Ac-PL3-Asp-Ala-B5-Asp-Glu-Ala-Ala-Phe-Gln-S8-Phe-BztA-DSer-NH2] |  |  |
| 50 µM (≈ 93.5 µg/mL) | 50 nM |  |  | 2.26 | CC(=O)N1CCC[C@]12CC=CCCCC1(CCCC=CCCCCCC[C@@](C)(C(=O)N[C@@H](Cc3ccccc3)C(=O)N[C@@H](Cc3csc4ccccc34)C(=O)N[C@@H](CCC(N)=O)C(N)=O)NC(=O)[C@H](CCC(N)=O)NC(=O)[C@H](Cc3ccccc3)NC(=O)[C@H](C)NC(=O)[C@H](C)NC(=O)[C@H](CCC(=O)O)NC(=O)[C@H](CC(=O)O)NC1=O)NC(=O)[C@H](C(C)C)NC(=O)[C@H](CC(=O)O)NC2=O (stereo partly drawn) [I-410, Ac-PL3-Asp-Val-B5-Asp-Glu-Ala-Ala-Phe-Gln-S8-Phe-BztA-Gln-NH2] |  |  |
| 50 µM (≈ 92.1 µg/mL) | 43 nM | 43 nM | 2.114 |  | CC[C@@H]1NC(=O)[C@H](CC(=O)O)NC(=O)[C@]2(CC=CCCCC3(CCCC=CCCCCCC[C@@](C)(C(=O)N[C@@H](Cc4ccccc4)C(=O)N[C@@H](Cc4csc5ccccc45)C(=O)N[C@@H](CCC(N)=O)C(N)=O)NC(=O)[C@H](CC(N)=O)NC(=O)[C@H](Cc4ccccc4)NC(=O)[C@H](C)NC(=O)[C@H](C)NC(=O)[C@H](CCC(=O)O)NC(=O)[C@H](CC(=O)O)NC3=O)NC1=O)CCCN2C(C)=O (stereo partly drawn) [I-474, Ac-PL3-Asp-Abu-B5-Asp-Glu-Ala-Ala-Phe-Asn-S8-Phe-BztA-Gln-NH2] |  |  |

| Structure (SMILES) | Solubility (Solubility in PBS) | IC50 [1, 2] | IC50 ([1]; read-out: FP EC50) | CHI Log D (CHI Log D procedure; pH 7.4) | chromatographic logD (CHI Log D procedure; pH 7.4, CHI Log D) | IC50 ([1]; beta-Catenin FP IC50 (nM), Table E2-1) | chromatographic logD (CHI Log D procedure; pH 7.4) |
| --- | --- | --- | --- | --- | --- | --- | --- |
| CC(=O)N1CCC[C@]12CC=CCCCC1(CCCC=CCCCCCC[C@@](C)(C(=O)N[C@@H](Cc3ccccc3)C(=O)N[C@@H](Cc3c[nH]c4ccccc34)C(=O)N[C@@H](CCC(N)=O)C(N)=O)NC(=O)[C@H](C(C)C)NC(=O)[C@H](Cc3ccccc3)NC(=O)[C@H](C)NC(=O)[C@H](C)NC(=O)[C@H](C)NC(=O)[C@H](CC(=O)O)NC1=O)NC(=O)[C@H](C)NC(=O)[C@H](CC(=O)O)NC2=O (stereo partly drawn) [I-352, Ac-PL3-Asp-Ala-B5-Asp-Ala-Ala-Ala-Phe-Val-S8-Phe-Trp-Gln-NH2] | 10 µM (≈ 17.4 µg/mL) |  |  |  |  | 5000 nM | 2.51 |
